Laboratory results reported in patent publication US9625444B2, “Artificial immune system: methods of use” (Sanofi Pasteur VaxDesign Corporation, priority 2004, dated 2017).

Legend:
[1] = tested on: human monocytes and dendritic cells; assay: in vitro chemotaxis towards chemoattractant-releasing PLGA microspheres; assay type: cell-based; settings: PLGA microspheres releasing the chemoattractant
Description: FIG. 7A is a schematic representation of the experimental design. […] FIGS. 7C and 7D show the movement of monocyte-derived DCs and monocytes, respectively, towards the vaccination site source well.
PLGA (poly(lactide-co-glycolide)) microspheres provide steady controlled release of encapsulated chemokines. […] Synthetic inverse opal hydrogel scaffolds were synthesized that support T-cell migration and interaction with B cells (FIG. 8A), and support attachment and growth of high cell densities, which is an important feature in mimicking the microenvironment of the lymph node (FIG. 8B).

[2] = tested on: human monocytes; settings: known value used for comparison; cited from earlier work
[3] = tested on: human monocytes; assay: rapid chemokine testing system (lateral motility / chemotaxis of cells); assay type: cell-based
Procedure: The BioAssembly Tool (BAT) has been modified for use in observations of the lateral motility of cells in experiments on chemotaxis. The described setup enables rapid screening of chemokines and cell matrices (typically, one experiment can take about half to one hour).
Three chemokines, fMLP-FITC; […], and MIP-3β, were tested with human monocytes. […] MIP-3β was found ineffective (as expected for immature monocytes); MIP-3α was found effective, despite negative information and expectations. […] Thus, fibrin matrices should be used preferably in cases when cell retention is required, and collagen should be used to make cell-permeable barriers. This latter observation may be important when considering the use of ETCs for wound healing procedures. This system can be used to further refine and optimize chemokine doses using various microparticle strategies and formulations, temporal release characteristics, and scaffold characteristics (e.g., geometry, porosity, material) on cell migration.
The rapid chemokine testing system can be used to examine saturation of cell receptors by chemokines. When a chemokine reaches its saturating concentration, cells become insensitive to the signal and stop their locomotion. In most cases, chemotaxis occurs through gradients of chemokines.

[4] = tested on: monocytes; assay: monocyte attraction to implanted extracellular matrix scaffold; assay type: in vivo; settings: mouse

CSCC[C@H](NC=O)C(=O)N[C@@H](CC(C)C)C(=O)N[C@@H](Cc1ccccc1)C(=O)O [fMLP, N-formyl-methionyl-leucyl-phenylalanine]
movement of cells towards releasing microspheres [1]: move towards microspheres | saturation level known [2]: ~30 nM

MIP-3α: chemokine (macrophage inflammatory protein-3) tested with human monocytes
effectiveness of the chemokine [3]: effective

MIP-3β: macrophage inflammatory protein-3β, a 10 kDa chemoattractant chemokine
effectiveness of the chemokine [3]: ineffective | attraction of monocytes (immunohistochemical staining) [4]: attracted

N-formyl-methionyl-leucyl-phenylalanine-fluorescein isothiocyanate [fMLP FITC]
saturation level [3]: ~40 nM
